{"source": "patent US6706663B2", "about": "“Herbicidal 3-heterocyclic substituted benzisothiazole and benzisoxazole compounds” (Wyeth, priority 2000, dated 2004)", "key": {"[1]": {"system": "ABUTH (Abutilon theophrasti)", "test": "Postemergence herbicidal evaluation", "assay_type": "in vivo, Medic.", "conditions": "postemergence", "method_in_brief": "(§1)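 Seedlings grown about two weeks in flats, sprayed, then kept under standard greenhouse care. Rated visually 4–5 weeks after treatment on a 0–9 scale (stand, vigour, malformation, size, chlorosis, overall appearance) relative to untreated control; repeat tests averaged.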"}, "[2]": {"system": "AMBEL (Ambrosia artemisifolia)", "test": "Postemergence herbicidal evaluation", "assay_type": "in vivo, L.", "conditions": "postemergence", "method_in_brief": "as §1"}, "[3]": {"system": "CASOB (Cassia obtusifolia)", "test": "Postemergence herbicidal evaluation", "assay_type": "in vivo, L.", "conditions": "postemergence", "method_in_brief": "as §1"}, "[4]": {"system": "CHEAL (Chenopodium album)", "test": "Postemergence herbicidal evaluation", "assay_type": "in vivo, L.", "conditions": "postemergence", "method_in_brief": "as §1"}, "GALAP (Galium aparine) [5]": {"system": "GALAP (Galium aparine)", "test": "Postemergence herbicidal evaluation", "assay_type": "in vivo", "conditions": "postemergence", "method_in_brief": "as §1"}, "[6]": {"system": "IPOHE (Ipomoea hederacea)", "test": "Postemergence herbicidal evaluation", "assay_type": "in vivo, (L.) Jacq.", "conditions": "postemergence", "method_in_brief": "as §1"}, "[7]": {"system": "ECHCG (Echinochloa crus-galli)", "test": "Postemergence herbicidal evaluation", "assay_type": "in vivo, (L.) Beau", "conditions": "postemergence", "method_in_brief": "as §1"}, "[8]": {"system": "GLXMAW (Soybean, Williams)", "test": "Postemergence herbicidal evaluation", "assay_type": "in vivo, Glycine max, (L.) Merr. cv Williams", "conditions": "postemergence", "method_in_brief": "as §1"}, "ZEAMX (Corn, Field) [9]": {"system": "ZEAMX (Corn, Field)", "test": "Postemergence herbicidal evaluation", "assay_type": "in vivo, Zea mays, L.", "conditions": "postemergence", "method_in_brief": "as §1"}, "[10]": {"system": "AMBEL (Ambrosia artemisifolia)", "test": "Preemergence herbicidal evaluation", "assay_type": "in vivo, L.", "conditions": "rated 4-5 weeks after treatment", "method_in_brief": "(§2)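 Scores (0–9) reflect visual comparison with control plants for stand, vigor, malformation, size and chlorosis. Seeds in potting soil received a post-planting spray of compound in aqueous acetone and grew in a greenhouse until assessment 4–5 weeks later.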"}, "[11]": {"system": "CASOB (Cassia obtusifolia)", "test": "Preemergence herbicidal evaluation", "assay_type": "in vivo, L.", "conditions": "rated 4-5 weeks after treatment", "method_in_brief": "as §2"}, "[12]": {"system": "CHEAL (Chenopodium album)", "test": "Preemergence herbicidal evaluation", "assay_type": "in vivo, L.", "conditions": "rated 4-5 weeks after treatment", "method_in_brief": "as §2"}, "GALAP (Galium aparine) [13]": {"system": "GALAP (Galium aparine)", "test": "Preemergence herbicidal evaluation", "assay_type": "in vivo", "conditions": "rated 4-5 weeks after treatment", "method_in_brief": "as §2"}, "[14]": {"system": "IPOHE (Ipomoea hederacea)", "test": "Preemergence herbicidal evaluation", "assay_type": "in vivo, (L.) Jacq.", "conditions": "rated 4-5 weeks after treatment"}, "[15]": {"system": "GLXMAW (Soybean, Williams)", "test": "Preemergence herbicidal evaluation", "assay_type": "in vivo, Glycine max, (L.) Merr. cv Williams", "conditions": "rated 4-5 weeks after treatment"}, "ORYSAT (Rice, Tebonnet)": {"system": "ORYSAT (Rice, Tebonnet)", "test": "Preemergence herbicidal evaluation", "assay_type": "in vivo, Oryza sativa, (L.) Tebonnet", "conditions": "rated 4-5 weeks after treatment"}, "[16]": {"system": "TRZAWR (Wheat, Winter, cv Riband)", "test": "Preemergence herbicidal evaluation", "assay_type": "in vivo, Triticum aestivum", "conditions": "rated 4-5 weeks after treatment", "method_in_brief": "as §2"}, "ZEAMX (Corn, Field) [17]": {"system": "ZEAMX (Corn, Field)", "test": "Preemergence herbicidal evaluation", "assay_type": "in vivo, Zea mays, L.", "conditions": "rated 4-5 weeks after treatment"}, "[18]": {"system": "ECHORC (Echinochloa oryzoides)", "test": "Flooded paddy, preemergence weed control", "assay_type": "in vivo, Echinochloa oryzoides (Ard.) Fritsch.", "conditions": "rated 3-4 weeks after treatment, 0-9 rating scale", "method_in_brief": "(§3)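 Ratings of 0-9 reflect visual comparison with a control for stand, vigor, deformity, size, chlorosis and overall look. Propagules were placed in shallow silt loam (top 0.5 cm) under a continuous 1.5–3 cm flood and grown in the greenhouse.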"}, "CYPIR (Cyperus iria)": {"system": "CYPIR (Cyperus iria)", "test": "Flooded paddy, preemergence weed control", "assay_type": "in vivo", "conditions": "rated 3-4 weeks after treatment, 0-9 rating scale", "method_in_brief": "as §3"}, "[19]": {"system": "SAGPY (Sagittaria pygmaea)", "test": "Flooded paddy, preemergence weed control", "assay_type": "in vivo, L.", "conditions": "rated 3-4 weeks after treatment, 0-9 rating scale", "method_in_brief": "as §3"}}}
{"smiles": "C[C@@H]1C[C@H](C)OC(c2nsc3cc(F)c(-n4c(=O)cc(C(F)(F)F)n(C)c4=O)cc23)O1", "note": "(stereo partly drawn) [Compound 67, 3-[3-[(4R,6S)-4,6-dimethyl-m-dioxan-2-yl]-6-fluoro-1,2-benzisothiazol-5-yl]-1-methyl-6-(trifluoromethyl)uracil]", "values": [{"measurement": "ABUTH herbicidal rating", "setting": "[1]; rate 0.0320 kg/ha", "result": 9.0}, {"measurement": "ABUTH herbicidal rating", "setting": "[1]; rate 0.0620 kg/ha", "result": 9.0}, {"measurement": "AMBEL herbicidal rating", "setting": "[2]; rate 0.0320 kg/ha", "result": 9.0}, {"measurement": "AMBEL herbicidal rating", "setting": "[2]; rate 0.0620 kg/ha", "result": 9.0}, {"measurement": "CASOB herbicidal rating", "setting": "[3]; rate 0.0320 kg/ha", "result": 9.0}, {"measurement": "CASOB herbicidal rating", "setting": "[3]; rate 0.0620 kg/ha", "result": 9.0}, {"measurement": "CHEAL herbicidal rating", "setting": "[4]; rate 0.0320 kg/ha", "result": 9.0}, {"measurement": "CHEAL herbicidal rating", "setting": "[4]; rate 0.0620 kg/ha", "result": 9.0}, {"measurement": "GALAP herbicidal rating", "setting": "GALAP (Galium aparine) [5]; rate 0.0320 kg/ha", "result": 6.0}, {"measurement": "GALAP herbicidal rating", "setting": "GALAP (Galium aparine) [5]; rate 0.0620 kg/ha", "result": 5.0}, {"measurement": "IPOHE herbicidal rating", "setting": "[6]; rate 0.0320 kg/ha", "result": 9.0}, {"measurement": "IPOHE herbicidal rating", "setting": "[6]; rate 0.0620 kg/ha", "result": 9.0}, {"measurement": "ECHCG herbicidal rating", "setting": "[7]; rate 0.0320 kg/ha", "result": 3.0}, {"measurement": "ECHCG herbicidal rating", "setting": "[7]; rate 0.0620 kg/ha", "result": 4.0}, {"measurement": "GLXMAW herbicidal rating", "setting": "[8]; rate 0.0320 kg/ha", "result": 9.0}, {"measurement": "GLXMAW herbicidal rating", "setting": "[8]; rate 0.0620 kg/ha", "result": 9.0}, {"measurement": "ZEAMX herbicidal rating", "setting": "ZEAMX (Corn, Field) [9]; rate 0.0320 kg/ha", "result": 5.5}, {"measurement": "ZEAMX herbicidal rating", "setting": "ZEAMX (Corn, Field) [9]; rate 0.0620 kg/ha", "result": 6.0}, {"measurement": "Preemergence herbicidal rating AMBEL", "setting": "[10]; Rate 0.0620 kg/ha", "result": 9.0}, {"measurement": "Preemergence herbicidal rating AMBEL", "setting": "[10]; Rate 0.1250 kg/ha", "result": 9.0}, {"measurement": "Preemergence herbicidal rating CASOB", "setting": "[11]; Rate 0.0620 kg/ha", "result": 5.5}, {"measurement": "Preemergence herbicidal rating CASOB", "setting": "[11]; Rate 0.1250 kg/ha", "result": 5.0}, {"measurement": "Preemergence herbicidal rating CHEAL", "setting": "[12]; Rate 0.0620 kg/ha", "result": 9.0}, {"measurement": "Preemergence herbicidal rating CHEAL", "setting": "[12]; Rate 0.1250 kg/ha", "result": 9.0}, {"measurement": "Preemergence herbicidal rating GALAP", "setting": "GALAP (Galium aparine) [13]; Rate 0.0620 kg/ha", "result": 8.0}, {"measurement": "Preemergence herbicidal rating GALAP", "setting": "GALAP (Galium aparine) [13]; Rate 0.1250 kg/ha", "result": 9.0}, {"measurement": "Preemergence herbicidal rating IPOHE", "setting": "[14]; Rate 0.0620 kg/ha", "result": 7.0}, {"measurement": "Preemergence herbicidal rating IPOHE", "setting": "[14]; Rate 0.1250 kg/ha", "result": 9.0}, {"measurement": "Preemergence herbicidal rating GLXMAW", "setting": "[15]; Rate 0.0620 kg/ha", "result": 9.0}, {"measurement": "Preemergence herbicidal rating GLXMAW", "setting": "[15]; Rate 0.1250 kg/ha", "result": 9.0}, {"measurement": "Preemergence herbicidal rating ORYSAT", "setting": "ORYSAT (Rice, Tebonnet); Rate 0.0620 kg/ha", "result": 9.0}, {"measurement": "Preemergence herbicidal rating ORYSAT", "setting": "ORYSAT (Rice, Tebonnet); Rate 0.1250 kg/ha", "result": 9.0}, {"measurement": "Preemergence herbicidal rating TRZAWR", "setting": "[16]; Rate 0.0620 kg/ha", "result": 9.0}, {"measurement": "Preemergence herbicidal rating TRZAWR", "setting": "[16]; Rate 0.1250 kg/ha", "result": 9.0}, {"measurement": "Preemergence herbicidal rating ZEAMX", "setting": "ZEAMX (Corn, Field) [17]; Rate 0.0620 kg/ha", "result": 9.0}, {"measurement": "Preemergence herbicidal rating ZEAMX", "setting": "ZEAMX (Corn, Field) [17]; Rate 0.1250 kg/ha", "result": 9.0}, {"measurement": "herbicidal rating, ECHORC", "setting": "[18]; rate 0.0080 kg/ha", "result": 4.5}, {"measurement": "herbicidal rating, ECHORC", "setting": "[18]; rate 0.0320 kg/ha", "result": 9.0}, {"measurement": "herbicidal rating, ECHORC", "setting": "[18]; rate 0.1250 kg/ha", "result": 9.0}, {"measurement": "herbicidal rating, CYPIR", "setting": "CYPIR (Cyperus iria); rate 0.0080 kg/ha", "result": 4.5}, {"measurement": "herbicidal rating, CYPIR", "setting": "CYPIR (Cyperus iria); rate 0.0320 kg/ha", "result": 7.0}, {"measurement": "herbicidal rating, CYPIR", "setting": "CYPIR (Cyperus iria); rate 0.1250 kg/ha", "result": 9.0}, {"measurement": "herbicidal rating, SAGPY", "setting": "[19]; rate 0.0080 kg/ha", "result": 1.5}, {"measurement": "herbicidal rating, SAGPY", "setting": "[19]; rate 0.0320 kg/ha", "result": 7.0}, {"measurement": "herbicidal rating, SAGPY", "setting": "[19]; rate 0.1250 kg/ha", "result": 7.0}]}
